The results in this text go back to US5330994A, “Tetrahydropyridine isoxazoline derivatives” (Warner-Lambert Company, priority 1992, dated 1994).

The structures appear in SMILES notation. Counter-ions that a name gives are not always drawn.

For test [1], the system named is muscarinic antagonist sites. As to the kind of experiment: Binding to muscarinic antagonist sites using [^3 H]quinuclidinyl benzylate (RQNB). The settings on record: [^3 H]quinuclidinyl benzylate radioligand. On the procedure:
(§1) Sigma binding affinities are measured using [^3 H]-(+)-3-(3'-hydroxyphenyl)-N-(1'-propyl)-piperdine, referred to in the following Table I as 3PPP. This test is carried out according to the procedures of B. L. Largent, et al, Proc. Natl. Acad. Sci., USA, 1984; 81:5618. The ability of the compounds to bind muscarinic antagonist sites was determined invitro using [^3 H]quinuclidinyl benzylate (RQNB) according to the procedure of M. Watson, J. Pharmacol. Exp. Ther. 1986; 237-411.

In a further test the target is T1, sigma binding site (Rattus norvegicus, UniProt Q9R0C9).
T1 construct: from tissue
T1 sequence (Q9R0C9 whole entry): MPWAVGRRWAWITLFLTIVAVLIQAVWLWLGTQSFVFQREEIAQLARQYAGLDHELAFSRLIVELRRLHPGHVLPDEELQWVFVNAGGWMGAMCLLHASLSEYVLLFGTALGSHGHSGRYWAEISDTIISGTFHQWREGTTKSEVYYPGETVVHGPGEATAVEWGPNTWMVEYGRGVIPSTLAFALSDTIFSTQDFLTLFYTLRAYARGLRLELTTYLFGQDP
As to the kind of experiment: Sigma binding affinity using [^3 H]-(+)-3-(3'-hydroxyphenyl)-N-(1'-propyl)-piperdine (3PPP). The settings on record: [^3 H]PPP radioligand. On the procedure:
as §1

By IC50 is commonly meant the concentration that inhibits the measured activity by half. `CCCN1CCC=C(C2=NOC(c3ccccc3)C2)C1` (stereo not shown) [Example 1, 3-[3'-(1'-propyl-1', 2', 5', 6'-tetrahydropyridinyl)]-5-phenyl-2-isoxazoline]: in test [1], the “RQNB % Inhibition @ 1 μM” value amounted to 10%. Further, the IC50 on sigma binding site amounted to 7.05 nM.
Take `CCCN1CCC=C(C2=NOC(c3ccc(OC)cc3)C2)C1` (stereo not shown) [Example 2, 3-[3'-(1'-Propyl-1', 2', 5', 6'-tetrahydropyridinyl) ]-5-(4'-methoxyphenyl)-2-isoxazoline]: the “RQNB % Inhibition @ 1 μM” value in test [1] is listed as 7%. The molecule further showed an IC50 at sigma binding site of 39.1 nM.
For `CCCN1CCC=C(C2=NOC(c3ccc(Cl)cc3)C2)C1` (stereo not shown) [Example 3, 3-[3'-(1'-Propyl-1', 2', 5', 6'-tetrahydropyridinyl)]-5-(4'-chlorophenyl)-2-isoxazoline], the “RQNB % Inhibition @ 1 μM” value in test [1] was found to be 22%. On sigma binding site, this molecule returned an IC50 of 1.03 nM.
The matching figures for `CCCN1CCC=C(c2cc(-c3ccccc3)no2)C1` [Example 4A, 3-phenyl-5-[3'-(1'-propyl-1', 2', 5', 6'-tetrahydropyridinyl)]isoxazole oxalate]: 10% and 0.78 nM.
The matching figures for `CCCN1CCC=C(c2cc(-c3ccccc3)on2)C1` [Example 4B, 3-[3'-(1'-propyl-1', 2', 5', 6'-tetrahydropyridinyl)]-5-phenylisoxazole oxalate]: 4% and 8.8 nM.
The matching figures for `CCCN1CCC=C(c2cc(-c3ccc(C)cc3)no2)C1` [Example 5A, 3-(4'-Methylphenyl)-5-[3'-(1'-propyl-1', 2', 5', 6'-tetrahydropyridinyl)]isoxazole oxalate]: 10% and 0.067 nM.
As to `CCCN1CCC=C(c2cc(-c3ccc(C)cc3)on2)C1` [Example 5B, 3-[3'-(1'-propyl-1', 2', 5', 6'-tetrahydropyridinyl)]-5-(4'-methylphenyl)isoxazole oxalate], in test [1], the “RQNB % Inhibition @ 1 μM” value is recorded as 6%. Moreover, on sigma binding site, the IC50 amounted to 0.62 nM.
On the same counts, the results for `CCCN1CCC=C(c2cc(-c3cccc(OC)c3)no2)C1` [Example 6A, 3-(3'-Methoxyphenyl)-5-[3'-(1'-propyl-1', 2', 5', 6'-tetrahydropyridinyl)]isoxazole oxalate] are 15% and 4 nM.
With `CCCN1CCC=C(c2cc(-c3cccc(OC)c3)on2)C1` [Example 6B, 3-[3'-(1'-propyl-1', 2', 5', 6'-tetrahydropyridinyl)]-5-(3'-methoxyphenyl)isoxazole oxalate], the “RQNB % Inhibition @ 1 μM” value in test [1] was found to be 7%. On sigma binding site, this molecule gave an IC50 of 0.1 nM.
Regarding `CCCN1CCC=C(c2cc(-c3cccc(C)c3)no2)C1` [Example 7A, 3-(3'-Methylphenyl)-5-[3'-(1'-propyl-1', 2', 5', 6'-tetrahydropyridinyl)]isoxazole oxalate], the “RQNB % Inhibition @ 1 μM” value in test [1] came out at 10%. Besides, the IC50 at sigma binding site turned out to be 0.45 nM.
Regarding `CCCN1CCC=C(c2cc(-c3cccc(C)c3)on2)C1` [Example 7B, 3-[3'-(1'-propyl-1', 2', 5', 6'-tetrahydropyridinyl)]-5-(3'-methylphenyl)isoxazole oxalate], the “RQNB % Inhibition @ 1 μM” value in test [1] is recorded as 10%. At sigma binding site, this molecule had an IC50 of 9.9 nM.
The matching figures for `CCCN1CCC=C(c2cc(-c3ccccc3C)no2)C1` [Example 8A, 3-(2'-Methylphenyl)-5-[3'-(1'-propyl-1', 2', 5', 6'-tetrahydropyridinyl)]isoxazole oxalate]: 40% and 3640 nM.
The matching figures for `CCCN1CCC=C(c2cc(-c3ccccc3C)on2)C1` [Example 8B, 3-[3'-(1'-propyl-1', 2', 5', 6'-tetrahydropyridinyl)]-5-(2'-methylphenyl)isoxazole oxalate]: 12% and 546 nM.
On the same counts, the results for `CCCN1CCC=C(c2cc(-c3ccccc3OC)no2)C1` [Example 9A, 3-(2'-Methoxyphenyl)-5-[3'-(1'-propyl-1', 2', 5', 6'-tetrahydropyridinyl)]isoxazole oxalate] are 23% and above 10000 nM.
Turning to `CCCN1CCC=C(c2cc(-c3ccccc3OC)on2)C1` [Example 9B, 3-[3'-(1'-propyl-1', 2', 5', 6'-tetrahydropyridinyl)]-5-(2'-methoxyphenyl)isoxazole oxalate], the “RQNB % Inhibition @ 1 μM” value in test [1] stood at 12%. At sigma binding site, this molecule registered an IC50 of 10000 nM.
With `CCCN1CCC=C(c2cc(-c3ccc(OC)cc3)no2)C1` [Example 14A, 3-(4'-Methoxyphenyl)-5-[3'-(1'-propyl-1', 2', 5', 6'-tetrahydropyridinyl)]isoxazole oxalate], the “RQNB % Inhibition @ 1 μM” value in test [1] was found to be 11%. The molecule also returned an IC50 on sigma binding site of 10000 nM.
On to `CCCN1CCC=C(c2cc(-c3ccc(OC)cc3)on2)C1` [Example 14B, 3-[3'-(1'-propyl-1', 2', 5', 6'-tetrahydropyridinyl)]-5-(4'-methoxyphenyl)isoxazole oxalate], for which the “RQNB % Inhibition @ 1 μM” value in test [1] turned out to be 9%. This molecule also gave an IC50 at sigma binding site of 1470 nM.
